Here are results for 10 molecules from ChEMBL document CHEMBL1201862, “PubChem BioAssay data set” (2004).

Some test systems named below: A549; T47D; U-251; UACC-62; SF-539; SNB-19; OVCAR-5; MOLT-4; HT-29; UO-31; DU-145; NCI-H226; CCRF-CEM; SNB-75; SK-MEL-5; Hs-578T; CAKI-1; SK-OV-3; 786-0; KM12.
Assay in all cases: DTP human tumour cell line panel, 48 h

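Test compounds were applied to cells in 96-well plates for 48 hours at 5 doses. GI50: concentration for 50% inhibition of growth.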 Activity calls are given as the source filed them. Rule as the data show it: active = GI50 up to about 1.1 µM and inactive = higher.

The GI50 is the concentration at which growth is held to half of that of the control. In the case of `CCN(CC)CCCNc1ncc(C)c2c1c1ccc3c(O)cccc3c1n2C`, the 50% growth inhibitory concentration (GI50) in the experiment with A549 was 0.389 µM (active); in the experiment with T47D, 17.9 µM (inactive); in the experiment with U-251, 1.1 µM (active); in the experiment with UACC-62, 18 µM (inactive); in the experiment on SF-539 it was 2.11 µM (inactive); in the experiment with SNB-19, 1.07 µM (active). Moreover, the GI50 is 5.57 µM (inactive) with OVCAR-5; 0.043 µM (active) in the experiment on MOLT-4; 1.21 µM (inactive) with HT-29; 7.89 µM (inactive) with UO-31; 1.57 µM (inactive) in the experiment with DU-145; 3.44 µM (inactive) in the experiment with NCI-H226. Moreover, the GI50 with CCRF-CEM is 0.392 µM (active); in the experiment on SNB-75, 1.81 µM (inactive); with SK-MEL-5, 6.76 µM (inactive); with Hs-578T it was 1.68 µM (inactive); with CAKI-1, 0.449 µM (active); in the experiment on SK-OV-3, 4.9 µM (inactive). Moreover, the concentration for 50% growth inhibition (GI50) in the experiment on 786-0 is 0.789 µM (active); in the experiment with KM12, 1.52 µM (inactive).
With `CCC1(C)C=Cc2c(cc(OC)c3c(=O)c4ccccc4n(C)c23)O1` (stereo not given), the GI50 was 3.94 µM (inactive) in the experiment with A549; 4.99 µM (inactive) in the experiment on T47D; > 10 µM (inactive) in the experiment on U-251; 9.98 µM (inactive) with UACC-62; 4.47 µM (inactive) in the experiment with SF-539; > 10 µM (inactive) in the experiment on SNB-19. For the same molecule, the GI50 with OVCAR-5 was > 10 µM (inactive); in the experiment on MOLT-4 it was > 10 µM (inactive); in the experiment on HT-29 it was 7.69 µM (inactive); in the experiment on UO-31 it was 1.15 µM (inactive); in the experiment on DU-145, > 10 µM (inactive); with NCI-H226 it was > 10 µM (inactive). In addition, the GI50 in the experiment with CCRF-CEM is 9.27 µM (inactive); in the experiment with SNB-75 it was 7.13 µM (inactive); in the experiment on SK-MEL-5, > 10 µM (inactive); in the experiment with Hs-578T it was 5.6 µM (inactive); with CAKI-1, 1.22 µM (inactive); in the experiment with SK-OV-3, > 10 µM (inactive). Besides, the GI50 in the experiment on 786-0 is 5.27 µM (inactive); in the experiment on KM12, 1.5 µM (inactive).
For `CCOC(=O)C(C/C=C/CO)N(C)C(=O)OC(C)(C)C` (stereo not given), the GI50 with A549, in the experiment on T47D, with U-251, in the experiment on UACC-62, with SF-539 and in the experiment with SNB-19 was > 100 µM (inactive) in each case. The GI50 in the experiment on OVCAR-5, in the experiment with MOLT-4, with HT-29, in the experiment on UO-31, in the experiment on DU-145 and with NCI-H226 was > 100 µM (inactive) each time. Besides, the GI50 with CCRF-CEM was 28.1 µM (inactive); in the experiment with SNB-75 it was 50.9 µM (inactive); in the experiment on SK-MEL-5, > 100 µM (inactive); in the experiment on Hs-578T, 53.5 µM (inactive); in the experiment on CAKI-1 it was > 100 µM (inactive); with SK-OV-3, > 100 µM (inactive). Also, the GI50 with 786-0 and with KM12 was > 100 µM (inactive) throughout.
With `COc1ccc(N(c2ccc(C#N)cc2)c2ccc(C#N)cc2)cc1`, the GI50 with A549 was > 100 µM (inactive); in the experiment with T47D, 4.57 µM (inactive); with U-251, > 100 µM (inactive); with UACC-62, > 100 µM (inactive); with SF-539 it was > 100 µM (inactive); with SNB-19, > 100 µM (inactive). The GI50 with OVCAR-5 is > 100 µM (inactive); with MOLT-4, 5.2 µM (inactive); with HT-29, 9.89 µM (inactive); in the experiment with UO-31, 22.2 µM (inactive); in the experiment with DU-145, > 100 µM (inactive); with NCI-H226, > 100 µM (inactive). Moreover, the GI50 in the experiment on CCRF-CEM is 3.07 µM (inactive); with SNB-75 it was > 100 µM (inactive); in the experiment with SK-MEL-5, > 100 µM (inactive); in the experiment on Hs-578T it was > 100 µM (inactive); in the experiment on CAKI-1, > 100 µM (inactive); in the experiment on SK-OV-3 it was > 100 µM (inactive). Further, the GI50 in the experiment on 786-0 was > 100 µM (inactive); in the experiment with KM12, 8.43 µM (inactive).
On to `Nc1ncnc2c1nc(Cl)n2[C@@H]1O[C@@H]2COP(=O)(O)O[C@H]2[C@H]1O` [TOCLADESINE], for which the GI50 in the experiment on A549 was 22.8 µM (inactive); with T47D, 14.7 µM (inactive); with U-251, 67.8 µM (inactive); with UACC-62, 15.7 µM (inactive); with SF-539, 49 µM (inactive); in the experiment on SNB-19, 122 µM (inactive). Also, the GI50 was 27.7 µM (inactive) in the experiment on OVCAR-5; 7 µM (inactive) with MOLT-4; 8.39 µM (inactive) in the experiment on HT-29; 16.4 µM (inactive) in the experiment with UO-31; 12.5 µM (inactive) in the experiment on DU-145; 6.18 µM (inactive) with NCI-H226. The GI50 in the experiment with CCRF-CEM is 3.48 µM (inactive); with SNB-75, 31.8 µM (inactive); in the experiment on SK-MEL-5, 152 µM (inactive); in the experiment on Hs-578T, 28.7 µM (inactive); with CAKI-1 it was 3.61 µM (inactive); in the experiment with SK-OV-3, 10.6 µM (inactive). For the same molecule, the GI50 was 8.85 µM (inactive) in the experiment with 786-0 and 75.5 µM (inactive) in the experiment on KM12.
On to `O=C(CCCN1CCC(O)(c2ccc(Cl)cc2)CC1)c1ccc(F)cc1` [HALOPERIDOL], for which the GI50 in the experiment on A549 was 42.8 µM (inactive); in the experiment with T47D, 37.5 µM (inactive); in the experiment on U-251, 20.7 µM (inactive); with UACC-62 it was 2.31 µM (inactive); in the experiment on SF-539 it was 26.1 µM (inactive); in the experiment on SNB-19, > 100 µM (inactive). In addition, the GI50 in the experiment with OVCAR-5 is 28.8 µM (inactive); with MOLT-4, 89.7 µM (inactive); in the experiment with HT-29 it was 18.8 µM (inactive); in the experiment with UO-31, 15.7 µM (inactive); with DU-145 it was 85.1 µM (inactive); in the experiment on NCI-H226, 32.2 µM (inactive). The GI50 in the experiment with CCRF-CEM was 41.4 µM (inactive); in the experiment on SNB-75, 23.8 µM (inactive); in the experiment with SK-MEL-5, 15.9 µM (inactive); in the experiment with Hs-578T, 25.4 µM (inactive); with CAKI-1 it was 10.1 µM (inactive); with SK-OV-3 it was 34.9 µM (inactive). In addition, the GI50 with 786-0 was 19.4 µM (inactive); with KM12, 18.6 µM (inactive).
With `CC1c2cc(c3c(c2O)CN([C@@H](C)C2CCCCC2)CO3)C(C)c2cc(c3c(c2O)CN([C@@H](C)C2CCCCC2)CO3)C(C)c2cc(c3c(c2O)CN([C@@H](C)C2CCCCC2)CO3)C(C)c2cc1c1c(c2O)CN([C@@H](C)C2CCCCC2)CO1` (stereo not given in full), the GI50 in the experiment with A549 was 1.84 µM (inactive); with T47D, 1.56 µM (inactive); in the experiment on U-251 it was 0.964 µM (active); in the experiment with UACC-62, 1.8 µM (inactive); in the experiment with SF-539 it was 1.77 µM (inactive); in the experiment on SNB-19, 1.61 µM (inactive). Also, the GI50 is 1.78 µM (inactive) in the experiment with OVCAR-5; 1.34 µM (inactive) with MOLT-4; 0.277 µM (active) with HT-29; 1.81 µM (inactive) with UO-31; 1.35 µM (inactive) in the experiment on DU-145; 0.979 µM (active) in the experiment with NCI-H226. The GI50 in the experiment with CCRF-CEM is 0.34 µM (active); in the experiment on SNB-75 it was 1.22 µM (inactive); in the experiment on SK-MEL-5, 1.84 µM (inactive); in the experiment on Hs-578T, 1.35 µM (inactive); with CAKI-1 it was 1.6 µM (inactive); in the experiment on SK-OV-3, 1.48 µM (inactive). The GI50 in the experiment with 786-0 was 1.13 µM (inactive); in the experiment on KM12, 0.838 µM (active).
For `CCN(CC)c1ccc(C(=C2C=CC(=[N+](CC)CC)C=C2)c2ccc(N(CC)CC)cc2)cc1`, the GI50 is 0.04 µM (active) in the experiment with A549; 0.106 µM (active) in the experiment with T47D; 0.0412 µM (active) in the experiment with U-251; 0.219 µM (active) with UACC-62; 0.195 µM (active) with SF-539; 0.101 µM (active) in the experiment with SNB-19. The GI50 with OVCAR-5 is 0.303 µM (active); in the experiment on MOLT-4, 0.115 µM (active); in the experiment on HT-29, 0.0414 µM (active); with UO-31, 0.212 µM (active); with DU-145, 0.0708 µM (active); in the experiment with NCI-H226, 0.407 µM (active). The concentration for 50% growth inhibition (GI50) with CCRF-CEM is 0.0593 µM (active); in the experiment with SNB-75 it was 0.104 µM (active); in the experiment on SK-MEL-5, 0.094 µM (active); with Hs-578T, 0.0889 µM (active); with CAKI-1, 0.21 µM (active); in the experiment with SK-OV-3, 0.0773 µM (active). Moreover, the 50% growth inhibitory concentration (GI50) with 786-0 is 0.057 µM (active); with KM12, 0.0561 µM (active).
Turning to `O=C(CCOS(=O)(=O)CF)N1CCN(C(=O)CCOS(=O)(=O)CF)CC1`, the GI50 in the experiment on A549 was 59 µM (inactive); in the experiment on T47D, 43.6 µM (inactive); in the experiment on U-251, 29.8 µM (inactive); in the experiment on UACC-62 it was 16.4 µM (inactive); in the experiment with SF-539, 28.8 µM (inactive); with SNB-19, 58.3 µM (inactive). Further, the GI50 in the experiment with OVCAR-5 is > 100 µM (inactive); in the experiment with MOLT-4 it was 3.03 µM (inactive); with HT-29 it was > 100 µM (inactive); in the experiment on UO-31, 66.7 µM (inactive); in the experiment with DU-145 it was 35.9 µM (inactive); in the experiment on NCI-H226, > 88.7 µM (inactive). The GI50 in the experiment on CCRF-CEM is 3.27 µM (inactive); in the experiment with SNB-75, 10.1 µM (inactive); in the experiment with SK-MEL-5 it was 51.6 µM (inactive); with Hs-578T, 22.2 µM (inactive); in the experiment on CAKI-1, 5.36 µM (inactive); with SK-OV-3 it was > 27.2 µM (inactive). For the same molecule, the GI50 in the experiment on 786-0 is 28.4 µM (inactive); with KM12 it was > 100 µM (inactive).
In the case of `O=[N+]([O-])c1nccn1CCCNc1ccnc2cc(Cl)ccc12`, the GI50 is 5.43 µM (inactive) in the experiment on A549; 7.67 µM (inactive) in the experiment on T47D; 6.82 µM (inactive) with U-251; 6.21 µM (inactive) in the experiment on UACC-62; 5.48 µM (inactive) in the experiment on SF-539; 4.06 µM (inactive) in the experiment with SNB-19. In addition, the GI50 in the experiment on OVCAR-5 is 14.4 µM (inactive); in the experiment with MOLT-4 it was 3.64 µM (inactive); in the experiment on HT-29, 3.94 µM (inactive); in the experiment with UO-31, 5.4 µM (inactive); in the experiment with DU-145, > 7.74 µM (inactive); in the experiment with NCI-H226, 3.27 µM (inactive). The GI50 with CCRF-CEM was 5.38 µM (inactive); with SNB-75, 6.62 µM (inactive); in the experiment with SK-MEL-5, 2.29 µM (inactive); in the experiment on Hs-578T, > 100 µM (inactive); with CAKI-1, > 5.93 µM (inactive); in the experiment with SK-OV-3 it was 6.49 µM (inactive). Moreover, the GI50 with 786-0 was 3.76 µM (inactive); in the experiment on KM12, 5.37 µM (inactive).
